Assay [1] concerns Histomonas meleagridis. In words: Prophylaxis of histomoniasis in turkey poults inoculated intracloacally, apramycin in feed (Example 1). The assay is classed as in vivo. As to conditions: live weight at the end of the study; 550 g/MT of feed, turkeys.
Assay [2] has as its system Histomonas meleagridis. The conditions noted are these: cited from earlier work.
The test system of assay [3] is Histomonas meleagridis. The experiment in a line: Prophylaxis of histomoniasis in turkey poults inoculated intracloacally, apramycin in feed (Example 1). The assay is classed as in vivo, turkeys. An excerpt:
The objective of the study was to investigate the activity of apramycin as prophylactic agent against a Histomonas meleagridis strain isolated from an outbreak of histomoniasis in turkeys in Belgium (September 2005). The antibiotic (apramycin) was supplemented through the feed at 550 g of the test product/MT of feed (Ap 550) in the challenged birds. This medicated group was compared with an Infected Untreated Control (IUC) and an Uninfected Untreated Control group (UUC).
Seventy five (75) one day old male animals (turkey poults) were enrolled in the study and randomly allocated to 3 groups of 25 animals per pen. During the whole study (from day 1 to day 38), Treatment 1 (UUC) and 2 (IUC) received standard animal (turkey) feed without supplementation, whereas Treatment 3, received feed supplemented with apramycin sulphate. On day 22, Treatments 2 and 3 were inoculated intracloacally with Histomonas meleagridis. From that day one, the animals were clinically observed on a daily base. At the end of the study, D38, all remaining animals were euthanized and necropsied and lesion scored for caeca and liver.
All animals (turkeys) died during the challenge period were necropsied to determine the cause of death. […] (see Table 1 and FIG. 1).

Assay [4] relates to Histomonas meleagridis. The conditions noted are these: turkeys; cited from earlier work.
Where [5] appears, read: 300 ppm, inoculated broiler chickens.
The mark [6] stands for this setting: necropsy, 550 g/MT of feed, turkeys.

The values below come from patent US8299037B2, “Feed or pharmaceutical composition comprising apramycin or an adequate salt thereof” (Poulpharm B.V.B.A., priority 2007, dated 2012).

“Also recorded” adds a separate entry of the source.

Consider `CN[C@@H]1[C@@H](O[C@H]2O[C@H](CO)[C@@H](N)[C@H](O)[C@H]2O)OC2C[C@@H](N)[C@@H](O[C@H]3[C@H](O)[C@@H](O)[C@H](N)C[C@@H]3N)OC2[C@@H]1O` (stereo partly drawn) [Ap 550, Apramycin], for which the “Average Weight at D40” value in assay [1] was determined as 1.40 kg. Moreover, in assay [2] (300 ppm in broilers), the “In-vivo use against histomoniasis (in words)” value is given as “ineffective”. The “Weight gain (in words)” value in assay [2] (300 ppm in broilers) is “no amelioration”. For the same molecule, the “Caecal histomoniasis lesions (in words)” value in assay [2] (setting [5]) was “No amelioration”. Moreover, the “Liver lesions / liver lesion scores (in words)” value in assay [2] (setting [5]) is on record as “some reduction”. Besides, the “Mortality due to histomoniasis (% Cumulative)” value is listed as 0.00% in assay [3] (D 7 PI, 550 g/MT of feed, turkeys); 0.00% in assay [3] (D 8 PI, 550 g/MT of feed, turkeys); 0.00% in assay [3] (D 9 PI, 550 g/MT of feed, turkeys); 0.00% in assay [3] (D 10 PI, 550 g/MT of feed, turkeys); 0.00% in assay [3] (D11 PI, 550 g/MT of feed, turkeys); 0.00% in assay [3] (D 12 PI, 550 g/MT of feed, turkeys). The “Mortality due to histomoniasis (% Cumulative)” value turned out to be 0.00% in assay [3] (D 13 PI, 550 g/MT of feed, turkeys); 0.00% in assay [3] (D 14 PI, 550 g/MT of feed, turkeys); 0.00% in assay [3] (D 15 PI, 550 g/MT of feed, turkeys); 0.00% in assay [3] (D 16 PI, 550 g/MT of feed, turkeys). For the same molecule, the “Mortality during the challenge period (in words)” value in assay [3] (inoculated turkeys, apramycin continuously in the feed) is reported as “significant effect in reducing the mortality; also recorded: not a single animal died”. For the same molecule, in assay [3] (setting [6]), the “Mean lesion score at necropsy, Caecum score” value is 0.45. For the same molecule, the “Mean lesion score at necropsy, Liver score” value in assay [3] (setting [6]) was determined as 0.00. The “Protection against the infection by Histomonas meleagridis (in words)” value in assay [3] (turkeys, 550 g/MT of feed) is listed as “does provide active protection”. Besides, the “Liver and caecal lesion scores (in words)” value in assay [3] (turkeys, apramycin continuously in the feed) is given as “reduced significantly”. The “Treatment effect on histomoniasis (in words)” value in assay [4] is “No significant treatment effect”.
